Experimental data taken from patent US11224243B2, “Taste-modifying combinations” (FIRMENICH SA, priority 2012, dated 2022).

How the values were obtained:
umami taste [1] = assay: Umami intensity and liking of amide 1, an ingredient and their blend in hot mineral water, trained panel; format: in vivo, human
Protocol: Pat. No. 7,807,206 (containing Rebaudioside A and stevioside), sea salt, succinic acid, yeast extract, hydrolyzed corn protein, or hydrolyzed wheat gluten) and a blend of the amide with the ingredient were weighed and hot mineral water was added to each sample according to the dosages indicated in each experiments. The samples were stirred in order to ensure the solubilisation of the ingredients. Each sample was coded, and tasted in a random order by 5 trained panelists. […] The panelists were also asked to describe the samples.

umami taste [2] = assay: Evaluation of amides 1 and 4 in a pork flavor, trained panel; format: in vivo, human; details: amide at 20 ppm in pork flavor; scale 0 to 10; 5 panelists; pork flavor alone = 4.5
Protocol: 3) Evaluation of Amides 1 and 4 in a Pork Flavor
Amides 1 and 4 were evaluated at 20 ppm by 5 trained panelists in a pork flavor on a blind test basis as described above.

[3] = Table 10, scale 1-10, MSG 0.04%, Amide 1 20 ppm, glucosylated stevosides 8 ppm, blend 20 ppm + 8 ppm
[4] = Table 11, scale 1-10, MSG 0.04%, Amide 1 20 ppm, Sea Salt 0.03%, blend 20 ppm + 0.03%
[5] = Table 12, scale 1-10, MSG 0.04%, Amide 1 20 ppm, Succinic acid 36 ppm, blend 20 ppm + 36 ppm
[6] = Table 13, scale 1-10, MSG 0.04%, Amide 1 20 ppm, Yeast extract 60 ppm, blend 20 ppm + 60 ppm
[7] = Table 14, scale 1-10, MSG 0.04%, Amide 1 20 ppm, Yeast extract 175 ppm, blend 20 ppm + 175 ppm
[8] = Table 15, scale 1-10, MSG 0.04%, Amide 1 10 ppm, Yeast extract 60 ppm, blend 10 ppm + 60 ppm
[9] = Table 16, scale 1-10, MSG 0.04%, Amide 1 20 ppm, Hydrolized corn protein 40 ppm, blend 20 ppm + 40 ppm
[10] = Table 17, scale 1-10, MSG 0.04%, Amide 1 20 ppm, Hydrolized corn protein 320 ppm, blend 20 ppm + 320 ppm
[11] = Table 18, scale 1-10, MSG 0.04%, Amide 1 20 ppm, Hydrolized wheat gluten 100 ppm, blend 20 ppm + 100 ppm
[12] = Table 19, scale 1-10, MSG 0.04%, Amide 1 10 ppm, Nature Pep 971481 100 ppm, blend 10 ppm + 100 ppm

Compound | Umami (umami taste [1]; [3]) | Umami (umami taste [1]; [4]) | Umami (umami taste [1]; [5]) | Umami (umami taste [1]; [6]) | Umami (umami taste [1]; [7]) | Umami (umami taste [1]; [8]) | Umami (umami taste [1]; [9]) | Umami (umami taste [1]; [10]) | Umami (umami taste [1]; [11]) | Umami (umami taste [1]; [12]) | Umami intensity (umami taste [2])
N[C@@H](CCC(=O)O)C(=O)[O-].[Na+] [MSG, monosodium glutamate, reference compound] | 5.8 | 5.8 | 4.2 | 5.5 | 5.5 | 4.0 | 5.4 | 3.0 | 5.5 | 7.2 | 
COc1ccc(CCNC(=O)/C=C/c2ccc(OC)c(OC)c2)cc1 [Amide 1, (E)-3-(3,4-dimethoxyphenyl)-N-(4-methoxyphenethyl)acrylamide] | 4.8 | 3.3 | 3.7 | 4.5 | 4.5 | 2.5 | 4.2 | 1.7 | 4.0 | 3.7 | 6
COc1cccc(CCNC(=O)/C=C/c2ccc(OC)c(OC)c2)c1 [Amide 4, (E)-3-(3,4-dimethoxyphenyl)-N-(3-methoxyphenethyl)acrylamide] |  |  |  |  |  |  |  |  |  |  | 7
O=C(O)CCC(=O)O [Succinic acid, succinic acid] |  |  | 1.0 |  |  |  |  |  |  |  | 
